Relative viability data for one cell line are collected here from the supplement of paper PMC10307832.

Holding throughout (assay): relative viability (nuclei count vs DMSO), 5 days (fraction); higher = more cells survive
Compound in the assay “Pazopanib + Pemetrexed”: Cc1ccc(Nc2nccc(N(C)c3ccc4c(C)n(C)nc4c3)n2)cc1S(N)(=O)=O [Pazopanib] + Nc1nc2[nH]cc(CCc3ccc(C(=O)N[C@@H](CCC(=O)O)C(=O)O)cc3)c2c(=O)[nH]1 [Pemetrexed] (partner 0.2 µM)
In outline:
(§1)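 A single step with final 0.05% Triton X-100, 1% formaldehyde and 1 ug/ml Hoechst fixed the cells and stained nuclei 5 days after treatment. Lung cancer cell lines in 1536-well plates had been treated by pin tool the day after seeding with one drug alone or a fixed anchor-drug dose plus five library-drug doses (not always all listed) in √10 steps, and nuclei were counted on 4× images. Relative viability is the ratio of nuclei in treated wells to nuclei in vehicle wells, taken as the median of duplicate plates.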

Compound in the assay “Pazopanib + Tozasertib”: Cc1ccc(Nc2nccc(N(C)c3ccc4c(C)n(C)nc4c3)n2)cc1S(N)(=O)=O [Pazopanib] + Cc1cc(Nc2cc(N3CCN(C)CC3)nc(Sc3ccc(NC(=O)C4CC4)cc3)n2)n[nH]1 [Tozasertib] (partner 0.1 µM)
In outline: as §1

Compound in the assay “Ponatinib + Dasatinib”: Cc1ccc(C(=O)Nc2ccc(CN3CCN(C)CC3)c(C(F)(F)F)c2)cc1C#Cc1cnc2cccnn12 [Ponatinib] + Cc1nc(Nc2ncc(C(=O)Nc3c(C)cccc3Cl)s2)cc(N2CCN(CCO)CC2)n1 [Dasatinib] (partner 0.075 µM)
The gist of the method:
as §1

Compound in the assay “Ponatinib + Navitoclax”: Cc1ccc(C(=O)Nc2ccc(CN3CCN(C)CC3)c(C(F)(F)F)c2)cc1C#Cc1cnc2cccnn12 [Ponatinib] + CC1(C)CCC(c2ccc(Cl)cc2)=C(CN2CCN(c3ccc(C(=O)NS(=O)(=O)c4ccc(N[C@H](CCN5CCOCC5)CSc5ccccc5)c(S(=O)(=O)C(F)(F)F)c4)cc3)CC2)C1 [Navitoclax] (partner 0.5 µM)
In outline:
as §1

Take SW 1573: the relative viability with Pazopanib + Pemetrexed (first compound 0.01 µM) was 0.831; with Pazopanib + Pemetrexed (first compound 0.03162 µM), 0.899; in the assay with Pazopanib + Pemetrexed (first compound 0.1 µM), 0.792; with Pazopanib + Pemetrexed (first compound 0.3162 µM), 0.857; with Pazopanib + Pemetrexed (first compound 1 µM) it was 0.861; in the assay with Pazopanib + Tozasertib (first compound 0.01 µM), 0.193. Further, the relative viability with Pazopanib + Tozasertib (first compound 0.03162 µM) worked out at 0.216; with Pazopanib + Tozasertib (first compound 0.1 µM) it was 0.218; with Pazopanib + Tozasertib (first compound 0.3162 µM) it was 0.153; in the assay with Pazopanib + Tozasertib (first compound 1 µM) it was 0.176; with Ponatinib + Dasatinib (first compound 0.002 µM), 0.451; with Ponatinib + Dasatinib (first compound 0.006325 µM) it was 0.507. Further, the relative viability amounted to 0.466 with Ponatinib + Dasatinib (first compound 0.06325 µM); 0.485 with Ponatinib + Dasatinib (first compound 0.2 µM); 1.02 with Ponatinib + Navitoclax (first compound 0.002 µM); 0.989 in the assay with Ponatinib + Navitoclax (first compound 0.006325 µM); 1.03 with Ponatinib + Navitoclax (first compound 0.06325 µM); 0.901 in the assay with Ponatinib + Navitoclax (first compound 0.2 µM).
